Data set [1] can be described thus: Acute toxicity in mice. In kind it is in vivo. The note with it: mouse, in vivo, ip, intraperitoneal. How it is done:
(§1) The LD50 dose which kills 50% of mice after intraperitoneal administration of the tested compounds was determined 48 hours later and the results are reported in Table IV.

For data set [2], the system named is effects of monoamine oxidase inhibitor (nialamide). The experiment in a line: Potentiation of effects of monoamine oxidase inhibitor (nialamide) in mice. The note with it: nialamide 100 mg/kg i.p. 30 minutes before, actimetry 6 hours. The format is in vivo. Also noted: key: Potentiation of the effects of nialamide for the tested product was expressed in increasing number of + signs for a determined dose in mg/kg; ++: Potentiation of the effects of nialamide for the tested product was expressed in increasing number of + signs for a determined dose in mg/kg; +++: Potentiation of the effects of nialamide for the tested product was expressed in increasing number of + signs for a determined dose in mg/kg. How it is done: The administration of a monoamine oxidase inhibitor to mice induces a hyperactive movement of the animals which is able to be potentiated by an antidepressant. Using the procedure of Carlsson et al [Brain Research, Vol. 12 (1969), p. 456], a dose of 100 mg/kg of nialamide was intraperitoneally administered to mice 30 minutes before the intraperitoneal administration of the tested product and the values of actimetric measurements were recorded every 30 minutes for 6 hours. Potentiation of the effects of nialamide for the tested product was expressed in increasing number of + signs for a determined dose in mg/kg.

Data set [3] concerns effects of 5-HTP. Briefly: Potentiation of effects of 5-HTP in mice. In kind it is in vivo. Conditions: Mus musculus, 1 h; i.p. one hour before 5-HTP 200 mg/kg i.p.; trembling observed for an hour; read-out: MAD (minimal active dose), potentiation of 5-HTP effects. How it is done:
The administration of 5-hydroxytryptophane (5-HTP) to mice pretreated with an antidepressant induces in the animals a particular behavior, namely the appearance of trembling. The tested products were administered intraperitoneally at increasing doses one hour before the intraperitoneal administration of 5-HTP at an dose of 200 mg/kg. The symptoms were observed every 15 minutes for an hour to determine the miminal active dose (MAD) of the test product and the results are reported in Table II.

The subject of data set [4] is effects of L-dopa. The experiment in a line: Potentiation of effects of L-dopa in mice pretreated with iproniazide. In kind it is in vivo, male mice. Conditions: Mus musculus, ip; i.p. one hour before L-dopa 100 mg/kg i.p.; iproniazide 75 mg/kg i.p. 18 hours before; read-out: ED50, dose which potentiates by 50% the L-dopa effects. How it is done:
The administration of L-dopa to mice pretreated 18 hours previously with iproniazide produced certain number of symptoms; muscular hypertonically, hyperactivity, agitation, crying, aggressiveness, salivation and exophthalmy. The intensity of these effects is potentiated by administration of an antidepressant one hour before the administration of L-dopa. Male mices received intraperitoneally 75 mg/kg of iproniazide 18 hours before the start of the test and the tested product was intraperitoneally administered in aqueous solution in increasing doses. One hour later, L-dopa was intraperitoneally administered at a dose of 100 mg/kg and the different symptoms were observed 15 and 30 minutes later. They were evaluated on a scale of 0 to 3 for each animal and the totals for each dose were determined.

The test system of data set [5] is mice. Briefly: Acute toxicity in mice. In kind it is in vivo. Conditions: intraperitoneal, 48 hours. Here is the method: as §1
Data set [6] deals with serotonine (5HT) uptake in synaptosomes. Briefly: Inhibition of Serotonine uptake in vitro (brain synaptosomes). Conditions: rat whole brain synaptosomes, 37° C, 5 minutes, 14 C-5HT 10^-7 M; read-out: I.C. 50, Test in vitro (inhibition of 14 C-5HT uptake). The format is biochemical, female rat 19 to 21 days old. Here is the method: The inhibition of serotonine (5HT) uptake was measured in impure synaptosomes prepared from the entire brain of a female rat 19 to 21 days old using the technique of Kannengiesser et al [Biochemical Pharmacology, Vol. 22, (1973) p. 73]. Diverse concentrations of the products were placed in an incubator with the preparation at 37° C for 5 minutes in the presence of 14 C-5HT at a concentration of 10^-7 M. The 50% inhibiting concentration (IC50), dose which inhibits by 50% the uptake of 14 C-5HT in the synaptosomes was determined graphically and the IC50 dose for the compounds is reported in Table V.

Data set [7] has as its system uptake of 14 C-5HT in synaptosomes. The experiment in a line: Inhibition of Serotonine uptake in vivo (synaptosomes from treated rats). The note with it: i.p. 5 to 20 mg/kg; brain removed after 30 minutes. More on the design: species or system female rats 19 to 21 days old; key: the activity was expressed in increasing number of + signs; ++: the activity was expressed in increasing number of + signs; +++: the activity was expressed in increasing number of + signs. Here is the method: The tested products were intraperitoneally administered to groups of female rats 19 to 21 days old at doses of 5 to 20 mg/kg. After 30 minutes, the brain was removed and synaptosomes were prepared and placed in an incubator in the presence of 14 C-5HT as indicated in the previous test.

Structures can show the parent of a compound that is named as a salt. Some results are limits rather than exact numbers.

As a reminder, the LD50 is the dose at which mortality reaches 50%. Take `CN(C)C1CCc2ccccc2C(c2ccccc2)C1` (single isomer, unassigned) [Example 4, 7-dimethylamino-5-phenyl-6,7,8,9-tetrahydro [5H] benzocycloheptene hydrochloride]: in data set [1], the LD50 at 48 h worked out at 50 mg/kg.

What is called ED50 is the midpoint of the dose-response relation. Take `CN(C)C1CCc2ccccc2C(c2ccccc2)C1` (single isomer, unassigned) [Example 5, 7-dimethylamino-5-phenyl-6,7,8,9-tetrahydro [5H] benzocycloheptene hydrochloride]: the Potentiation of nialamide entry is recorded as “+” in data set [2] (1 mg/kg i.p.) and “+++” in data set [2] (20 mg/kg i.p.). In addition, in data set [3], the minimal effective dose was determined as 10 mg/kg. In data set [4], the ED50 was 2 mg/kg. This compound also came in with an LD50 in data set [5] of 50 mg/kg. Further, the IC50 in data set [6] is 150 nM. Besides, the “Test in vivo (inhibition of 14 C-5HT uptake)” value in data set [7] is on record as “+++”.

As for `CN(C)C1C=Cc2ccccc2CC1` (stereo not shown) [Example 1, 7-dimethylamino-6,7-dihydro [5H] benzocycloheptene hydrochloride], the Potentiation of nialamide result in data set [2] (20 mg/kg i.p.) is “++”. In data set [3], the minimal effective dose was determined as 20 mg/kg. The ED50 in data set [4] is < 5 mg/kg. For the same compound, in data set [1], the LD50 at 48 h was 75 mg/kg. The IC50 in data set [6] turned out to be 510 nM. In data set [7], the “Test in vivo (inhibition of 14 C-5HT uptake)” value is on record as “++”.

Take `CN(C)C1CCc2ccccc2CC1` [Example 2, 7-dimethylamino-6,7,8,9-tetrahydro [5H] benzocycloheptene hydrochloride]: the Potentiation of nialamide entry in data set [2] (20 mg/kg i.p.) is recorded as “+++”; in data set [2] (1-5 mg/kg i.p.), “+”. In addition, in data set [4], the ED50 worked out at 5 mg/kg. In addition, the LD50 at 48 h in data set [1] came to 100 mg/kg.

Turning to `CN(C)C1C=C(c2ccccc2)c2ccccc2CC1` (stereo not shown) [Example 3, 7-dimethylamino-9-phenyl-6,7-dihydro [5H] benzocycloheptene hydrochloride], in data set [4], the ED50 was 2 mg/kg. The LD50 at 48 h in data set [1] was found to be 100 mg/kg.

Consider `CNC1C=Cc2ccccc2CC1` (stereo not shown) [Example 6, 7-methylamino-6,7-dihydro [5H] benzocycloheptene hydrochloride], for which the Potentiation of nialamide entry in data set [2] (5 mg/kg i.p.) is reported as “++”; in data set [2] (20 mg/kg i.p.) it was “+++”. The minimal effective dose in data set [3] came out at 5 mg/kg. Moreover, in data set [4], the ED50 amounted to 10 mg/kg. This compound came in with an LD50 at 48 h in data set [1] of 75 mg/kg. For the same compound, the IC50 in data set [6] is 1900 nM. Also, the “Test in vivo (inhibition of 14 C-5HT uptake)” value in data set [7] is “++”.

Turning to `CNC1CCc2ccccc2CC1` [Example 7, 7-methylamino-6,7,8,9-tetrahydro [5H] benzocycloheptene hydrochloride], the results for the Potentiation of nialamide result in data set [2] (5 mg/kg i.p.) and in data set [2] (20 mg/kg i.p.) were “+” and “++”, respectively. The ED50 in data set [4] was found to be 10 mg/kg. The same compound returned an LD50 at 48 h in data set [1] of 100 mg/kg.

Regarding `CNC1C=C(c2ccccc2)c2ccccc2CC1` (stereo not shown) [Example 8, 7-methylamino-9-phenyl-6,7-dihydro [5H] benzocycloheptene hydrochloride], in data set [4], the ED50 amounted to 5 mg/kg. The compound further had an LD50 at 48 h in data set [1] of 50 mg/kg.

For the compound `CNC1CCc2ccccc2C(c2ccccc2)C1` (stereo not shown) [Example 9, 7-methylamino-5-phenyl-6,7,8,9-tetrahydro [5H] benzocycloheptene hydrochloride], the minimal effective dose in data set [3] was 20 mg/kg. Also, in data set [4], the ED50 was 5 mg/kg. The same compound came in with an LD50 at 48 h in data set [1] of 50 mg/kg.

With `CNC1C=Cc2cc(Cl)ccc2CC1.Cl` (stereo not shown) [Example 10 (2-chloro derivative), 2-chloro-7-methylamino-6,7-dihydro [5H] benzocycloheptene hydrochloride], the Potentiation of nialamide entry in data set [2] (1 mg/kg i.p.) and in data set [2] (5 mg/kg i.p.) was “+++” each time. The minimal effective dose in data set [3] amounted to 10 mg/kg. The ED50 in data set [4] was < 5 mg/kg. The same compound gave an LD50 at 48 h in data set [1] of 75 mg/kg. Besides, in data set [6], the IC50 was determined as 350 nM. In addition, the “Test in vivo (inhibition of 14 C-5HT uptake)” value in data set [7] is “+++”.

For `CNC1C=Cc2cccc(Cl)c2CC1` (stereo not shown) [Example 11, 4-chloro-7-methylamino-6,7-dihydro [5H] benzocyclopheptene hydrochloride], the values for the Potentiation of nialamide result in data set [2] (5 mg/kg i.p.) and in data set [2] (20 mg/kg i.p.) were “+” and “+++”, respectively. In data set [3], the minimal effective dose is 20 mg/kg. In addition, the ED50 in data set [4] was determined as 20 mg/kg. Also, the LD50 at 48 h in data set [1] was 75 mg/kg. Besides, the IC50 in data set [6] amounted to 400 nM. Moreover, the “Test in vivo (inhibition of 14 C-5HT uptake)” value in data set [7] is “+”.

On to `CCNC1C=Cc2ccccc2CC1` (stereo not shown) [Example 12, 7-ethylamino-6,7-dihydro [5H] benzocycloheptene hydrochloride], for which the minimal effective dose in data set [3] turned out to be 20 mg/kg. Further, the ED50 in data set [4] came to 10 mg/kg. Moreover, the LD50 at 48 h in data set [1] is 75 mg/kg.

On to `CN1CCN(C2C=Cc3ccccc3CC2)CC1` (stereo not shown) [Example 13, 7-(4-methylpiperazin-1-yl)-6,7,-dihydro [5H] benzocycloheptene difumarate], for which the Potentiation of nialamide entry in data set [2] (20 mg/kg i.p.) is given as “++”. For the same compound, in data set [3], the minimal effective dose came out at 50 mg/kg. Besides, in data set [4], the ED50 came out at 20 mg/kg. The same compound displayed an LD50 at 48 h in data set [1] of 250 mg/kg.

Consider `C=CCNC1C=Cc2ccccc2CC1` (stereo not shown) [Example 14, 7-allylamino-6,7-dihydro [5H] benzocycloheptene hydrochloride], for which the Potentiation of nialamide entry in data set [2] (20 mg/kg i.p.) is reported as “++”. Moreover, the minimal effective dose in data set [3] is 50 mg/kg. In addition, in data set [4], the ED50 worked out at 20 mg/kg. The same compound returned an LD50 at 48 h in data set [1] of 150 mg/kg.

(Values after patent US4091115A, “7-Amino-benzocycloheptenes” (Roussel Uclaf, priority 1975, dated 1978).)
